{
  "source": "patent US20230181598A1",
  "about": "“FORMULATIONS AND METHODS OF TREATING COVID-19 AND PREVENTING INFECTION WITH SARS-CoV-2” (priority 2020, published 2023)",
  "key": {"[1]": {"conditions": "cited from earlier work"}, "[2]": {"tested_on": "SARS-CoV-2 (strain USA-WA1/2020)", "assay": "microbe, parasite or virus in culture", "format": "cell-based", "conditions": "for Average Log10 CCID50 virus per 0.2 mL: average of duplicate inserts; for Log10 Reduction in virus titer (CCID50) vs virus control / Log10 CCID50 virus per 0.2 mL: dNHBE cells"}, "[3]": {"conditions": "0.1 μM, single insert, day 5 after infection"}},
  "note": "“And” between values parts separate entries of the source, which are not always exact repeats. Equal values may be shown once. Read-outs that look alike come from different tables or passages of the source.",
  "data": [
    {"smiles": "CCOC(=O)C1=C(COCCN)NC(C)=C(C(=O)OC)C1c1ccccc1Cl", "note": "(racemic) [Amlodipine besylate, 3-Ethyl-5-methyl (±)-2-[(2-aminoethoxy)methyl]4-(2-chlorophenyl)-1,4-dihydro-6-methyl-3,5-pyridinedicarboxylate, monobenzenesulphonate]", "values": [
      {"measurement": "solubility in ethanol", "setting": "[1]; ethanol", "value": "sparingly soluble"},
      {"measurement": "solubility in water", "setting": "[1]; water", "value": "slightly soluble"}
    ]},
    {"smiles": "CC#C[C@]1(O)CC[C@H]2[C@@H]3CCC4=CC(=O)CCC4=C3[C@@H](c3ccc(N(C)C)cc3)C[C@@]21C", "note": "[Mifepristone, 11β-(4-dimethylaminophenyl)-17β-hydroxy-17α-(1-propynyl)-estra-4,9-dien-3-one]", "values": [
      {"measurement": "Average Log10 CCID50 virus per 0.2 mL", "setting": "[2]; 5 μM, day 5", "value": 3.5, "unit": "Log10 CCID50 per 0.2 mL"},
      {"measurement": "Log10 Reduction in virus titer (CCID50) vs virus control", "setting": "[2]; 5 μM, day 5", "value": 0.8, "unit": "Log10"},
      {"measurement": "Log10 Reduction in virus titer (CCID50) vs virus control", "setting": "[2]; 5 μM, day 5, listed as mifepristone", "value": "~1", "unit": "Log10"},
      {"measurement": "solubility", "setting": "[1]; acidic media, pH 1.5", "value": "~25", "unit": "mg/mL"},
      {"measurement": "solubility", "setting": "[1]; pH values above 2.5", "value": "less than 1 mg/mL"}
    ]},
    {"smiles": "CCC(CC)COC(=O)[C@H](C)N[P@](=O)(OC[C@H]1O[C@@](C#N)(c2ccc3c(N)ncnn23)[C@H](O)[C@@H]1O)Oc1ccccc1", "note": "[Remdesivir]", "values": [
      {"measurement": "Log10 CCID50 virus per 0.2 mL", "setting": "[2]; 0.001 μM, day 5", "value": 4.0, "unit": "Log10 CCID50 per 0.2 mL"},
      {"measurement": "Log10 CCID50 virus per 0.2 mL", "setting": "[2]; 0.01 μM, day 5", "value": 3.3, "unit": "Log10 CCID50 per 0.2 mL"},
      {"measurement": "Log10 CCID50 virus per 0.2 mL", "setting": "[2]; [3]", "value": 2.7, "unit": "Log10 CCID50 per 0.2 mL"},
      {"measurement": "Log10 CCID50 virus per 0.2 mL", "setting": "[2]; 1.0 μM, day 5", "value": 2.0, "unit": "Log10 CCID50 per 0.2 mL"},
      {"measurement": "EC90", "setting": "[2]; Severe acute respiratory syndrome coronavirus 2, Vero 76", "value": 9, "unit": "nM"},
      {"measurement": "EC90", "setting": "[2]; Severe acute respiratory syndrome coronavirus 2, Vero 76, 120 h, read-out: EC90 (concentration to reduce virus yield by 1 log10, regression analysis) (converted)", "value": 9, "unit": "nM"}
    ]},
    {"smiles": "CCOC(=O)C1=C(COCCN)NC(C)=C(C(=O)OC)C1c1ccccc1Cl", "note": "(centres unmarked) [Amlodipine]", "values": [
      {"measurement": "Average Log10 CCID50 virus per 0.2 mL", "setting": "[2]; 0.1 μM, day 5", "value": 3.6, "unit": "Log10 CCID50 per 0.2 mL"},
      {"measurement": "Log10 Reduction in virus titer (CCID50) vs virus control", "setting": "[2]; 0.1 μM, day 5", "value": 0.7, "unit": "Log10"},
      {"measurement": "Log10 Reduction in virus titer (CCID50) vs virus control", "setting": "[2]; 0.1 μM, day 5, listed as amlodipine", "value": "~1", "unit": "Log10"},
      {"measurement": "Log10 CCID50 virus per 0.2 mL", "setting": "[2]; [3]", "value": "3.7 Log10 CCID50 per 0.2 mL and 3.5 Log10 CCID50 per 0.2 mL"}
    ]}
  ]
}
